Test results: ChEMBL document CHEMBL4406840, “Design and synthesis of novel artemisinin derivatives with potent activities against colorectal cancer in vitro and in vivo” (Eur J Med Chem, 2019)
The source made the active and inactive calls. No cut-off for these calls is given here.

Assays:
[1] = test system: WM 266-4; assay: cells; format: functional, cell-based; conditions: Homo sapiens, WM 266-4, 48 h
Description: Antiproliferative activity against human WM266.4 cells assessed as inhibition of cell viability after 48 hrs by MTS assay

[2] = test system: HCT-116; assay: cells; format: functional, cell-based; conditions: Homo sapiens, HCT-116, 48 h
Description: Antiproliferative activity against human HCT116 cells assessed as inhibition of cell viability after 48 hrs by MTS assay

[3] = test system: HCT-116; assay: Potency index, ratio of dihydroartemisinin IC50 to compound IC50 for antiproliferative activity against human HCT116 cells by MTS assay; format: functional
[4] = test system: HCT-116; assay: Antitumour activity against human HCT116 cells xenografted in BALB/c nude mouse assessed as tumour shrunken at 2.5 to 5 mg/kg, ip administered daily for 18 days started from 2 days after tumor cell inoculation by digital caliper method; format: functional, organism-based
[5] = test system: HCT-116; assay: Antitumour activity against human HCT116 cells xenografted in BALB/c nude mouse assessed as delay in tumour growth at 2.5 to 5 mg/kg, ip administered daily for 18 days started from 2 days after tumor cell inoculation by digital caliper method; format: functional, organism-based
[6] = Toxicity in BALB/c nude mouse xenografted with human HCT116 cells assessed as effect on body weight at 2.5 to 5 mg/kg, ip administered daily for 18 days; format: organism-based; conditions: in vivo, 432 h
[7] = test system: HCT-116; conditions: Homo sapiens, at 10 mg/kg
Description: Antitumour activity against human HCT116 cells xenografted in BALB/c nude mouse assessed as reduction in tumour growth at 10 mg/kg, ip administered daily for 18 days started from 2 days after tumor cell inoculation by digital caliper method

Structure (SMILES) | IC50 [1] [µM] | IC50 [2] [µM] | also measured
C[C@H]1[C@H](OC(=O)CCCC(=O)OCc2ccc3ncnc(Nc4ccc(F)c(Cl)c4)c3c2)O[C@@H]2O[C@@]3(C)CC[C@H]4[C@H](C)CC[C@@H]1[C@@]24OO3 | 11.4 | 0.29 | –
CC(=O)O[C@H]1C(=O)[C@@]2(C)[C@H]([C@H](OC(=O)c3ccccc3)[C@]3(O)C[C@H](OC(=O)[C@H](O)[C@@H](NC(=O)c4ccccc4)c4ccccc4)C(C)=C1C3(C)C)[C@]1(OC(C)=O)CO[C@@H]1C[C@@H]2O [PACLITAXEL] | 0.00032 | – | –
C[C@H]1[C@H](OC[C@H](N)c2ccccc2)O[C@@H]2O[C@@]3(C)CC[C@H]4[C@H](C)CC[C@@H]1[C@@]24OO3 | 15.1 | 16.2 | –
C[C@H]1[C@@H](OCc2ccc3ncnc(Nc4ccc(F)c(Cl)c4)c3c2)O[C@@H]2O[C@@]3(C)CC[C@H]4[C@H](C)CC[C@@H]1[C@@]24OO3 | 10.8 | 0.29 | –
C[C@H]1[C@@H](OCCCCOCc2ccc3ncnc(Nc4ccc(F)c(Cl)c4)c3c2)O[C@@H]2O[C@@]3(C)CC[C@H]4[C@H](C)CC[C@@H]1[C@@]24OO3 | 3.81 | 0.36 | –
CC(=O)N(c1ccc(F)c(Cl)c1)c1ncnc2ccc(COC(=O)CCCCC(=O)N[C@@H]3O[C@@H]4O[C@@]5(C)CC[C@H]6[C@H](C)CC[C@@H]([C@H]3C)[C@@]46OO5)cc12 | 27.8 | 11.8 | –
C[C@H]1[C@H](NC(=O)CCCC(=O)OCc2ccc3ncnc(Nc4ccc(F)c(Cl)c4)c3c2)O[C@@H]2O[C@@]3(C)CC[C@H]4[C@H](C)CC[C@@H]1[C@@]24OO3 | 15.3 | 5.56 | –
C[C@H]1[C@@H](OCCCOCc2ccc3ncnc(Nc4ccc(F)c(Cl)c4)c3c2)O[C@@H]2O[C@@]3(C)CC[C@H]4[C@H](C)CC[C@@H]1[C@@]24OO3 | 5.18 | 2.11 | –
CC(=O)N(c1ccc(F)c(Cl)c1)c1ncnc2ccc(COC(=O)CCCC(=O)O[C@@H]3O[C@@H]4O[C@@]5(C)CC[C@H]6[C@H](C)CC[C@@H]([C@H]3C)[C@@]46OO5)cc12 | 15 | 0.78 | –
C[C@H]1[C@H](OC(=O)CCCCC(=O)OCc2ccc3ncnc(Nc4ccc(F)c(Cl)c4)c3c2)O[C@@H]2O[C@@]3(C)CC[C@H]4[C@H](C)CC[C@@H]1[C@@]24OO3 | 3.51 | 0.31 | –
C[C@H]1[C@H](NC(=O)CCCCC(=O)OCc2ccc3ncnc(Nc4ccc(F)c(Cl)c4)c3c2)O[C@@H]2O[C@@]3(C)CC[C@H]4[C@H](C)CC[C@@H]1[C@@]24OO3 | 25.3 | 5.68 | –
C[C@H]1[C@H](OCCCCCOc2ccc3ncnc(Nc4ccc(F)c(Cl)c4)c3c2)O[C@@H]2O[C@@]3(C)CC[C@H]4[C@H](C)CC[C@@H]1[C@@]24OO3 | 5.7 | 0.35 | –
CC(=O)N(c1ccc(F)c(Cl)c1)c1ncnc2ccc(COC(=O)CCCC(=O)N[C@@H]3O[C@@H]4O[C@@]5(C)CC[C@H]6[C@H](C)CC[C@@H]([C@H]3C)[C@@]46OO5)cc12 | 5.08 | 5.35 | –
CC(=O)N(c1ccc(F)c(Cl)c1)c1ncnc2ccc(COC(=O)CCCCC(=O)O[C@@H]3O[C@@H]4O[C@@]5(C)CC[C@H]6[C@H](C)CC[C@@H]([C@H]3C)[C@@]46OO5)cc12 | 18.8 | 0.66 | –
C[C@H]1[C@@H](OCCCCCOc2ccc3ncnc(Nc4ccc(F)c(Cl)c4)c3c2)O[C@@H]2O[C@@]3(C)CC[C@H]4[C@H](C)CC[C@@H]1[C@@]24OO3 | 2.91 | 0.24 | Ratio IC50 [3]: 10
CC(=O)N(c1ccc(F)c(Cl)c1)c1ncnc2ccc(COC(=O)CCC(=O)O[C@@H]3O[C@@H]4O[C@@]5(C)CC[C@H]6[C@H](C)CC[C@@H]([C@H]3C)[C@@]46OO5)cc12 | 9.29 | 0.28 | –
C[C@H]1[C@H](OC[C@H](NC(=O)c2ccc3ncnc(Nc4ccc(F)c(Cl)c4)c3c2)c2ccccc2)O[C@@H]2O[C@@]3(C)CC[C@H]4[C@H](C)CC[C@@H]1[C@@]24OO3 | 6.67 | 0.11 | Activity [4]: Active; inhibition [5]: Active; Activity [6]: Non-Toxic
O=C(O)c1ccc2ncnc(Nc3ccc(F)c(Cl)c3)c2c1 | > 40 | > 40 | –
C[C@H]1[C@H](OCCCCOCc2ccc3ncnc(Nc4ccc(F)c(Cl)c4)c3c2)O[C@@H]2O[C@@]3(C)CC[C@H]4[C@H](C)CC[C@@H]1[C@@]24OO3 | 12.6 | 2.42 | –
C[C@H]1[C@H](OC(=O)CCC(=O)OCc2ccc3ncnc(Nc4ccc(F)c(Cl)c4)c3c2)O[C@@H]2O[C@@]3(C)CC[C@H]4[C@H](C)CC[C@@H]1[C@@]24OO3 | 10.2 | 0.18 | –
C[C@H]1[C@H](O)O[C@@H]2O[C@@]3(C)CC[C@H]4[C@H](C)CC[C@@H]1[C@@]24OO3 | > 40 | 2.85 | inhibition [7]: Active
CC(=O)N(c1ccc(F)c(Cl)c1)c1ncnc2ccc(COC(=O)CCC(=O)N[C@@H]3O[C@@H]4O[C@@]5(C)CC[C@H]6[C@H](C)CC[C@@H]([C@H]3C)[C@@]46OO5)cc12 | 15.4 | 12.9 | –
C[C@@H]1CC[C@H]2[C@@H](C)C(O[C@H](C(=O)OCc3ccc4ncnc(Nc5ccc(F)c(Cl)c5)c4c3)c3ccccc3)O[C@@H]3O[C@@]4(C)CC[C@@H]1[C@]32OO4 (stereo partly drawn) | – | 0.89 | –
C[C@@H]1CC[C@H]2[C@@H](C)C(O[C@@H](C(=O)OCc3ccc4ncnc(Nc5ccc(F)c(Cl)c5)c4c3)c3ccccc3)O[C@@H]3O[C@@]4(C)CC[C@@H]1[C@]32OO4 (stereo partly drawn) | – | 0.68 | –
C[C@H]1[C@H](OCCCOCc2ccc3ncnc(Nc4ccc(F)c(Cl)c4)c3c2)O[C@@H]2O[C@@]3(C)CC[C@H]4[C@H](C)CC[C@@H]1[C@@]24OO3 | 15.8 | 6.54 | –
C[C@H]1[C@H](NC(=O)CCC(=O)OCc2ccc3ncnc(Nc4ccc(F)c(Cl)c4)c3c2)O[C@@H]2O[C@@]3(C)CC[C@H]4[C@H](C)CC[C@@H]1[C@@]24OO3 | 9.88 | 2.78 | –
C[C@H]1[C@H](OC(=O)CCC(=O)O)O[C@@H]2O[C@@]3(C)CC[C@H]4[C@H](C)CC[C@@H]1[C@@]24OO3 [ARTESUNATE] | 8.46 | 0.89 | –
C[C@H]1[C@H](OCc2ccc3ncnc(Nc4ccc(F)c(Cl)c4)c3c2)O[C@@H]2O[C@@]3(C)CC[C@H]4[C@H](C)CC[C@@H]1[C@@]24OO3 | 4.56 | 0.42 | –
